{"source": "patent US20130143958A1", "about": "“DOSAGE UNIT COMPRISING A PROSTAGLANDIN ANALOG FOR TREATING CONSTIPATION” (priority 2001, published 2013)", "key": {"[1]": {"settings": "cited from earlier work; for effect on the intestine: administered in pharmacological doses"}, "volunteers [2]": {"system": "volunteers", "assay": "Phase Ia single rising dose study, safety, tolerance and bowel movement frequency", "assay_type": "in vivo, human", "protocol": "(§1) The safety and tolerance of oral Compound A (13,14-dihydro-15-keto-16,16-difluoro-PGE1) was evaluated in 16 volunteers in a single-dose Phase I study (Phase Ia) at rising per-person doses of 6 μg, 12 μg, 24 μg, 48 μg, 72 μg, and 96 μg compared and in 24 volunteers in a multiple-dose Phase I study (Phase Ib) at rising per-person doses of 24 μg, 30 μg, and 36 μg of Compound A administered three times a day (TID) (i.e., total daily per person doses of 72 μg, 90 μg and 108 μg) for 6 days.\n96 μg was the maximum tolerated single oral Compound A dose. […] These occurred in 13 of the 17 volunteers and all resolved. Volunteers receiving placebo experienced five AEs. Most AEs could be categorized as either responses or events commonly reported in Phase I clinical trials (such as headache and lightheadedness) or expected pharmacodynamic responses of Compound A (such as loose bowel movements, diarrhea and abdominal cramping).\nBowel movement frequency was assessed during the 24 hour period after dosing for each dose-level group. Bowel movements were experienced in the placebo and in all active dose groups. […] Compared to only three of twelve subjects experiencing bowel movements in the placebo group, all six subjects in the 96 μg Compound A group experienced bowel movements. Furthermore, the average number of bowel movements per subject in this Compound A group (1.5) was three times greater than the average number of bowel movements per subject in the placebo group (0.5)."}, "patients": {"system": "patients", "assay": "Phase II dosage study in constipation, 21 days", "assay_type": "in vivo, human", "settings": "for daily average number of spontaneous bowel movements vs placebo: Week 1 and Week 2; for stool consistency: all post-baseline time points", "protocol": "All randomized patients who took at least one dose of double-blind study medication constituted the safety evaluable (SE) population. These patients were included in the demographic data, baseline characteristic data and safety analysis. For efficacy, the same data set was used and is referred to as the intent-to-treat (ITT) population. […] Key efficacy analyses were also performed on the per-protocol (PP) population, which excluded all data for the affected weeks for protocol violators. Patients whose treatments were adjusted were analyzed in their original treatment group (i.e., as randomized).\nEligible patients were treated with either placebo or total daily doses of 24 μg, 48 μg or 72 μg of Compound A for 21 days. One placebo or Compound A capsule was taken 3 times each day (AM, Noon, and PM). Compound A was administered as 24 μg oral capsules. Patients assigned to receive the total daily 24 μg Compound A dose took one Compound A capsule in the AM and one matching placebo capsule both at Noon and in the PM; patients assigned to receive the total daily 48 μg Compound A dose took one Compound A capsule in both the AM and PM and one matching placebo capsule at Noon; patients assigned to receive the total daily 72 μg Compound A dose took one Compound A capsule in the AM, at Noon, and in the PM."}, "volunteers [3]": {"system": "volunteers", "assay": "Phase Ib multiple rising dose study (TID for 6 days), safety, tolerance and bowel movement frequency", "assay_type": "in vivo, human", "settings": "for total bowel movements in group: placebo 31", "protocol": "as §1\nCompound A was determined to be optimal when administered at the 24 μg dose TID and determined to be safe and tolerable up to 36 μg when administered TID for at least 6 days.\nBowel movement frequency was assessed in this study as well. […] A total of 193 bowel movements were experienced in this study. Of these, 31 occurred in the placebo group, 70 in the 24 μg group, 51 in the 30 μg group and 41 in the 36 μg group."}}}
{"compound": "CCCCC[C@H](O)/C=C/[C@@H]1[C@@H](C/C=C\\CCCC(=O)O)[C@@H](O)C[C@H]1O", "note": "[PGF2α]", "values": [{"measurement": "effect on the intestine", "setting": "[1]", "value": "stimulate intestinal transit and to cause diarrhea"}]}
{"compound": "CCCCC(C)(O)C/C=C/[C@H]1[C@H](O)CC(=O)[C@@H]1CCCCCCC(=O)OC", "note": "(mixture of isomers) [misoprostol]", "values": [{"measurement": "most commonly reported side effect", "setting": "[1]; in vivo", "value": "diarrhea"}]}
{"compound": "CCCCC(F)(F)C(=O)CCC1C(O)CC(=O)C1CCCCCCC(=O)O", "note": "(centres unmarked) [Compound A, 13,14-dihydro-15-keto-16,16-difluoro-PGE1]", "values": [{"measurement": "average number of bowel movements per subject relative to placebo group", "setting": "volunteers [2]; 96 μg single dose, 24 hour period after dosing", "value": "three"}, {"measurement": "average number of bowel movements per subject", "setting": "volunteers [2]; 96 μg single dose, 24 hour period after dosing, placebo 0.5", "value": 1.5}, {"measurement": "subjects experiencing bowel movements", "setting": "volunteers [2]; 96 μg single dose, 24 hour period after dosing, placebo three of twelve", "value": "all six"}, {"measurement": "bowel movements compared to placebo", "setting": "volunteers [2]; 24 hour period after dosing", "value": "trend for increased bowel movements"}, {"measurement": "total number of AEs", "setting": "volunteers [2]; in vivo", "value": 49}, {"measurement": "volunteers with AEs", "setting": "volunteers [2]; in vivo", "value": "13 of the 17"}, {"measurement": "dose-limiting toxicity", "setting": "volunteers [2]; in vivo, po", "value": "nausea"}, {"measurement": "maximum tolerated single per-person dose", "setting": "volunteers [2]; single oral dose", "value": 96, "unit": "µg"}, {"measurement": "proportion of patients who had a spontaneous bowel movement on Day 1", "setting": "patients; 48 μg total daily dose", "value": "statistically significant increase"}, {"measurement": "daily average number of spontaneous bowel movements vs placebo", "setting": "patients; 48 μg total daily dose", "value": "statistically significant increases"}, {"measurement": "constipation severity", "setting": "patients; 48 μg total daily dose, Week 3", "value": "Statistically significant improvements"}, {"measurement": "stool consistency", "setting": "patients; 48 μg total daily dose", "value": "Statistically significant improvements"}, {"measurement": "proportion of patients who had a spontaneous bowel movement on Day 1", "setting": "patients; 72 μg total daily dose", "value": "statistically significant increase"}, {"measurement": "daily average number of spontaneous bowel movements vs placebo", "setting": "patients; 72 μg total daily dose", "value": "statistically significant increases"}, {"measurement": "constipation severity", "setting": "patients; 72 μg total daily dose, Weeks 2 and 3", "value": "Statistically significant improvements"}, {"measurement": "stool consistency", "setting": "patients; 72 μg total daily dose", "value": "Statistically significant improvements"}, {"measurement": "minimum effective dose", "setting": "patients; based on statistical analyses", "value": 48, "unit": "μg per day"}, {"measurement": "overall efficacy, relief of constipation", "setting": "patients; doses as low as 24 μg per day", "value": "tended to relieve constipation"}, {"measurement": "total bowel movements in group", "setting": "volunteers [3]; 24 μg group TID", "value": 70}, {"measurement": "total bowel movements in group", "setting": "volunteers [3]; 30 μg group TID", "value": 51}, {"measurement": "maximum tolerated multiple dose as total daily dose", "setting": "volunteers [3]; 36 μg TID", "value": 108, "unit": "µg"}, {"measurement": "total bowel movements in group", "setting": "volunteers [3]; 36 μg group TID", "value": 41}, {"measurement": "best tolerated effective dose", "setting": "volunteers [3]; TID, healthy volunteers", "value": 24, "unit": "µg"}, {"measurement": "optimal dose", "setting": "volunteers [3]; administered TID", "value": 24, "unit": "µg"}, {"measurement": "central nervous system or physical abnormalities", "setting": "volunteers [3]; in vivo", "value": "no central nervous system or physical abnormalities observed"}, {"measurement": "main dose limiting side effect", "setting": "volunteers [3]; in vivo", "value": "nausea"}, {"measurement": "safe and tolerable dose", "setting": "volunteers [3]; in vivo", "value": "up to 36 μg"}, {"measurement": "vital signs and ECG measurements", "setting": "volunteers [3]; in vivo", "value": "normal"}, {"measurement": "maximum tolerated multiple per-person dose", "setting": "volunteers [3]; oral, taken TID, 6 days", "value": 36, "unit": "µg"}]}
{"compound": "CCCCC[C@H](O)/C=C/[C@H]1[C@H](O)CC(=O)[C@@H]1C/C=C\\CCCC(=O)O", "note": "[PGE2]", "values": [{"measurement": "effect on the intestine", "setting": "[1]", "value": "stimulate intestinal transit and to cause diarrhea"}]}
